Source: patent US20250058002A1, “ELECTROCHEMICAL INHIBITION OF REDOX ACTIVE BACTERIA AND RELATED DEVICES, METHODS AND SYSTEMS” (priority 2023, published 2025)
“Also recorded” adds a separate entry of the source. Like-named read-outs stand apart in the source and are kept apart here.

Legend:
[1] = Midpoint potential E1/2 by voltammetry vs Ag/AgCl (3M KCl); format: physicochemical; settings: for E1/2 (vs. Ag/AgCl (3M KCl))/mV: Example 15 table
Protocol: The purified redox-active molecule can be dissolved in aqueous solution at appropriate concentration in the presence of supporting electrolyte and buffer to select the pH of measurement. For example, the redox-active molecule can be dissolved in 10 μM-10 mM concentrations in distilled, deionized water (DDW). The supporting electrolyte can be a salt such as NaCl or KCl at 0.01-0.5 M concentrations, for example, dissolved in DDW. The buffer can be 10 mM ammonium acetate/3-(N-morpholino)propanesulfonic acid at pH 7, or phosphate-buffered saline (PBS) at pH 7.4, or sodium acetate buffer at pH 5, or di-sodium hydrogen phosphate/potassium dihydrogen phosphate at pH 9, or boric acid/citric acid/trisodium phosphate for a wide range of pH values, for example.
Voltammetric methods are then used to characterize the electrochemical behavior of the redox-active molecule in such solution, with a potentiostat such as a Gamry PC4-300, using a three-electrode setup with working electrode (glassy carbon, or platinum, or gold), counter electrode (platinum wire) and reference electrode (Ag/AgCl (3M KCl), or SCE, or NHE; values are reported relative to Ag/AgCl (3M KCl) which has potential +197 mV vs. NHE at 298K).
For example, cyclic voltammetry may be used. In a cyclic voltammetry experiment phenazines will show a peak on the cathodic sweep (denoted Epc) corresponding to the reduction of the redox molecule.
The reverse, anodic sweep will show a peak (denoted Epa) corresponding to the re-oxidation of the redox molecule. If the electrode reaction is diffusion-controlled and reversible, the cathodic and anodic peak currents will be equal in area, and the mid-point between these peaks may be taken as the formal reduction potential of the redox molecule under the experimental conditions used. This value can interchangeably be referred to as the “midpoint potential” or “mid-peak potential”, denoted E1/2.
PYO was purified from aerobic bacterial cultures and was dissolved in 0.1 M KCl aqueous solution buffered with 10 mM ammonium acetate-3-(N-morpholino)propanesulfonic acid (5 mM each, pH 7) to yield a stock solution concentration of 829 μM PYO. Electrochemical measurements were performed with a Gamry PC4-300 potentiostat. A stationary gold disk electrode (BASi) was used as the working electrode, an Ag/AgCl electrode (RE-51, BASi) as the reference, and a straight platinum wire (BASi) was the counter electrode. Scans were performed between 20 and 500 mV/s in the potential range of around E1/2 (+/−300 mV), at 298 K.
As described in en.wikipedia.org/wiki/Nernst_equation, the Nernst equation relates E1/2 measured at pH 7 to the E1/2 at a different pH by:
[formula] • where E1/2 is in V • h is the number of protons transferred in the electrochemical reaction • e is the number of electrons transferred in the electrochemical reaction

[2] = vs NHE at pH7; cited from earlier work
[3] = Standard electrode potential E0' vs NHE of exemplary redox-active compounds (Table 4); format: physicochemical; settings: measured in aqueous solution at pH 7 in this study (footnote b)
Excerpt: (§1) Phenazines and other redox active compound in the sense of the disclosure can be further characterized by various electrical properties such as a standard electrode potential E° vs. NHE of −500 mV to 500 mV and other properties such as number of redox cycle over a certain period of time (e.g. number of days) as ability to support survival and susceptibility to reduction by enzymes and/or bacterial strains.

[4] = oxidized form; literature values (footnotes a, c, d); cited from earlier work
[5] = test system: PA14; assay: Reduction of redox-active compound by PA14 (Table 4); format: cell-based, P. aeruginosa
Excerpt: as §1

[6] = test system: PA14; assay: Redox cycles over 7 days and support of survival (Table 4); format: cell-based, P. aeruginosa
Excerpt: as §1

[7] = from Wang and Newman (2008), cited from earlier work
[8] = test system: P. aeruginosa PA14 biofilms; assay: Anoxic survival (CFU) of electrode-attached wild type biofilms at poised potential with sub-MIC antibiotics; format: cell-based, P. aeruginosa UCBPP-PA14
Protocol: (§2) Electrochemical reactors and biofilm growth. Double-jacketed electrochemical reactors (Pine Instruments, 250 ml, wide center port 29/26) were used with ITO-coated 0.2 mm thick boro-aluminosilicate glass slides (Delta Technologies, 24×60 mm, Rs=7-10Ω) as working electrodes, freshly sanded graphite rods (Alfa Aesar) as counter electrodes, and Ag/AgCl in 3M KCl reference electrodes (BASi). Silver epoxy (Electron Microscopy Sciences) was used to make electrical connection between insulated wire ([…]) and working electrode and was insulated using 5 Minute® expoxy (Devcon). Working electrodes were assembled within 5 hours of use. Reactors were sterilized by autoclaving without reference or working electrodes, which were sterilized by submerging in 10% bleach for 5 minutes or 30 seconds, respectively, and rinsed in sterile water. Individual mid-log liquid cultures (OD600 0.45-0.55) were used to inoculate sterile reactors containing 140 ml of MM (described above) with 0.1% (vol/vol) for each biological replicate. Antibiotics were not added at this point. Working electrodes were poised at either open circuit, +100 mV, or −400 mV vs. Ag/AgCl (+310 mV and −190 mV vs the standard hydrogen electrode, respectively). Reactors were aerated using an aquarium pump with a 0.2 μm filter (Thermo Scientific) and heated to 31° C. using a circulating water bath (Haake A 25, Thermo Scientific). Fresh medium was exchanged every 24 hours for 5 days. After 5 days of aerobic growth, working electrode-attached biofilms were rinsed in sterile medium to remove planktonic cells and transferred to sterile reactors with fresh MM previously flushed for 2 hours with N2 ultra-high purity gas (NRL supply store). For antibiotic exposure experiments, antibiotics were added to sterile media before flushing with N2. For PYO-addition experiments, 10 μM PYO (Cayman Chemical) was added to in the MM before flushing with N2. Working electrodes were poised to their corresponding potential and biofilms were incubated for an additional 72 hours under N2 flushing at 31° C.
Biofilm harvesting and processing. After 72 hours of incubation under anoxic conditions, electrode-attached biofilms were rinsed in sterile media. The biofilms within the bottom 3.12 cm^2 of each working electrode were scraped off using a cell scraper (Sarstedt) and resuspended in antibiotic-free MM. Serial dilutions were prepared in sterile antibiotic-free MM and plated on antibiotic-free LB. The rest of the electrode-attached biofilms were incubated at room temperature in freshly-made 2 μM TOTO-1 and 10 μM SYTO-60 (Invitrogen) in MM for 15 minutes and rinsed 2× in sterile MM for 15 minutes. Imaging was done with an upright Zeiss LSM 800 microscope with Airyscan and a 40× oil immersion lens. SYTO-60 was excited with a 561 nm; 0.20% laser and emission was recorded from 580-700 nm. TOTO-1 was excited with a 488 nm; 0.20% laser and emission was recorded from 490 to 580 nm.
In order to test the effect of antibiotic in combination with application of a difference in voltage to P. aenuginosa, sub-MICs of gentamicin, meropenem, ciprofloxacin, and colistin were added to anoxic survival reactors set up as described in Examples 1 and 2.

[9] = test system: Δphz* biofilms; assay: Anoxic survival (CFU) of electrode-attached phenazine-deficient biofilms at poised potential; format: cell-based, P. aeruginosa UCBPP-PA14; Δphz*; settings: 4 μg/mL gentamicin, −400 mV, absence of phenazines
Protocol: as §2, with “For PYO-addition experiments, 10 μM PYO (Cayman Chemical) was added to in the MM before flushing with N2. Working electrodes were poised to their corresponding potential and biofilms were incubated for an additional 72 hours under N2 flushing at 31° C.” left out
Biofilm harvesting and processing. […] SYTO-60 was excited with a 561 nm; 0.20% laser and emission was recorded from 580-700 nm. TOTO-1 was excited with a 488 nm; 0.20% laser and emission was recorded from 490 to 580 nm.

Molecule | Redox potentials E (mV) [2] | E0' (vs. NHE) (mV) [4] | Reduction by PA14? [5] | Support survival? [6] | # of Redox cycles over 7 days [6] | also measured
NAD/NADH | −320 mV | – | – | – | – | midpoint potential vs Ag/AgCl ([1]; aqueous environment at pH7): −600 mV
Ubiquinone [Ubiquinone ox/red] | +113 mV | – | – | – | – | –
CN(C)c1ccc2nc3ccc(=[N+](C)C)cc-3sc2c1 [Methylene blue (MB), Methylene blue] | – | +11 mV | Yes | No | 3 | E0' (vs. NHE) (mV) [3]: 0 mV
O=C1CCC(=O)N(O)CCC(O)CNC(=O)CCC(=O)N(O)CCC(O)CN1 (stereo not shown) [Alcaligin] | −588 mV | – | – | – | – | –
O=C(O)c1cccc2nc3ccccc3nc12 [Phenazine-1-carboxylate (PCA), Phenazine-1-carboxylate] | – | −114^a mV | Yes | Yes | 22 | E1/2 (vs. Ag/AgCl (3M KCl))/mV ([7]; pH 5): −185 mV; E1/2 (vs. Ag/AgCl (3M KCl))/mV ([7]; pH 6): −257 mV; E1/2 (vs. Ag/AgCl (3M KCl))/mV ([7]; pH 7): −313 mV; E1/2 (vs. Ag/AgCl (3M KCl))/mV ([1]; pH 5): −185 mV; E1/2 (vs. Ag/AgCl (3M KCl))/mV ([1]; pH 6): −257 mV; E1/2 (vs. Ag/AgCl (3M KCl))/mV ([1]; pH 7): −313 mV
O2/H2O | +820 mV | – | – | – | – | –
gentamicin | – | – | – | – | – | CFU/cm^2 ± SE, −400 mV (PYO-reductive conditions) ([8]; wild type biofilms, 72 h anoxic, −400 mV vs Ag/AgCl, n=3, 4 μg/mL gentamicin, 1 μg/mL meropenem, 4 μg/mL ciprofloxacin): 21.4±10.7 CFU/cm^2; effect on wild type biofilms under PYO-reductive conditions (in words) ([8]; −400 mV vs Ag/AgCl, anoxic, sub-MIC antibiotic): almost fully eradicated WT biofilms; also recorded: almost completely eradicated wild type biofilms; effect on Δphz* biofilms under PYO-reductive conditions (in words) [9]: did not affect Δphz* biofilms; also recorded: had no effect on the survival of Δphz* biofilms
O=C(O)Cc1cc(O)ccc1O [Homogentisic acid (HMA), Homogentisic acid] | – | – | – | No | No cycle | E0' (vs. NHE) (mV) [3]: +306^b mV
O=C(O)c1cn(C2CC2)c2cc(N3CCNCC3)c(F)cc2c1=O [ciprofloxacin] | – | – | – | – | – | decrease in cell survival under PYO-reductive conditions compared with OC ([8]; −400 mV vs OC, 1 μg/mL meropenem or 4 μg/mL ciprofloxacin): ~100 ×
C[n+]1ccc(-c2cc[n+](C)cc2)cc1 [Paraquat] | – | −446^c mV | No | No | No cycle | –
